Where two headings read alike, the source gives them in different places.
Key:
Assay type in all cases: cell-based
[1] = system: Human liver tumor cells HepG2; assay: MTT in vitro cell proliferation inhibition experiment, HepG2; conditions: MTT method, 48 h contact between compound and cell, read-out: Antiproliferative activity (IC50, μM) HepG2
Protocol: (§1) Human liver tumor cells HepG2, human colon cancer cells HCT116, and human gastric adenocarcinoma cells AGS were purchased from the Institute of Basic Medical Sciences, Chinese Academy of Medical Sciences. The cells each were preserved and passaged in the laboratory of the present disclosure according to respective cultivation data. Each cell line was routinely inoculated in a 50 mL cell culture flask, and cultivated with a 10% fetal bovine serum-containing DMEM/IRP-1640 medium at 37° C., 5% CO2, and 100% humidity, where the medium was changed daily. When growing to a confluency of 80% to 90%, cells were digested with a mixture of trypsin and EDTA and passaged according to 1:3.
(§2) An in vitro cell activity and proliferation inhibition experiment was conducted by an MTT method to investigate an impact of a target compound on a survival activity of each cell. Cells at a logarithmic growth phase were inoculated at 5×10^3 cells (100 μL)/well in a 96-well culture plate and cultivated for 24 h, and then compound solutions with different concentrations prepared in advance were added (100 μL) to the plate. At least 3 replicate wells were set for each concentration. A solvent control group without a compound and a blank control group without a cell were set. Edge wells each were filled with 200 μL of sterilized water. […] A liquid in each well was completely removed carefully, 150 μL of DMSO was added to each well, the plate was gently shaken on a microshaker for 10 min to make a purple crystal fully dissolved, and then an absorbance value was determined at 570 nm by a microplate reader. With a cell viability of the solvent control group without a compound as 100%, a cell survival rate was calculated as follows: a cell survival rate=(an absorbance value of a compound group−an absorbance value of the blank control group)/(an absorbance value of the control group−an absorbance value of the blank control group)×100%. A half-maximal inhibitory concentration (IC50) of a compound for a cell was calculated by the Graphpad Prism 5 software.

[2] = system: human colon cancer cells HCT116; assay: MTT in vitro cell proliferation inhibition experiment, HCT116; conditions: 48 h contact between compound and cell, read-out: Antiproliferative activity (IC50, μM) HCT116
Protocol: as §1, §2

[3] = system: human gastric adenocarcinoma cells AGS; assay: MTT in vitro cell proliferation inhibition experiment, AGS; conditions: MTT method, 48 h contact between compound and cell, read-out: Antiproliferative activity (IC50, μM) AGS
Protocol: as §1, §2

[4] = Homo sapiens, HCT-116, MTT method

Row | IC50 ([1]; Homo sapiens) | IC50 [2, 4] | IC50 ([3]; Homo sapiens) | SMILES | IC50 [1] | IC50 ([2]; MTT method) | IC50 [3]
1 | – | – | – | N.N.[Cl][Pt][Cl] [Cisplatin, reference compound] | 43.2 µM | 39.1 µM | 46 µM
2 | > 100 µM | 20.3 µM | 69 µM | CC(C)CC1NC2(C(=O)c3ccccc3C2=O)C(C(=O)c2nc3ccccc3[nH]2)C1C1CCCCC1 (stereo not drawn) [Compound 9, 3-(1H-benzimidazol-2-carbonyl)-4-cyclohexyl-5-isobutylspiro[inden-2,2′-pyrrolidine]-1,3-dione] | – | – | –
3 | 87.7 µM | 15.7 µM | 46.7 µM | CC(C)CC1NC2(C(=O)c3ccccc3C2=O)C(C(=O)c2nc3ccccc3[nH]2)C1c1ccc(Cl)c(F)c1 (stereo not drawn) [Compound 10, 3-(1H-benzimidazol-2-carbonyl)-4-(3-fluoro-4-chlorophenyl)-5-isobutylspiro[inden-2,2′-pyrrolidine]-1,3-dione] | – | – | –
4 | > 100 µM | 30.3 µM | > 100 µM | CC(C)CC1NC2(C(=O)c3ccccc3C2=O)C(C(=O)c2nc3ccccc3[nH]2)C1c1ccc(Cl)cc1 (stereo not drawn) [Compound 11, 3-(1H-benzimidazol-2-carbonyl)-4-(4-chlorophenyl)-5-isobutylspiro[inden-2,2′-pyrrolidine]-1,3-dione] | – | – | –
5 | > 100 µM | 14.1 µM | 42.7 µM | Cc1ccc(C2C(CC(C)C)NC3(C(=O)c4ccccc4C3=O)C2C(=O)c2nc3ccccc3[nH]2)cc1 (stereo not drawn) [Compound 12, 3-(1H-benzimidazol-2-carbonyl)-5-isobutyl-4-p-tolylspiro[inden-2,2′-pyrrolidine]-1,3-dione] | – | – | –
6 | > 100 µM | > 100 µM | > 100 µM | CCOc1ccc(C2C(CC(C)C)NC3(C(=O)c4ccccc4C3=O)C2C(=O)c2nc3ccccc3[nH]2)cc1OCC (stereo not drawn) [Compound 13] | – | – | –
7 | 11.7 µM | 5.88 µM | 7.92 µM | CC(C)CC1NC2(C(=O)c3ccccc3C2=O)C(C(=O)c2nc3ccccc3[nH]2)C1c1cccc(Br)c1 (stereo not drawn) [Compound 14, 3-(1H-benzimidazol-2-carbonyl)-4-(3-bromophenyl)-5-isobutylspiro[inden-2,2′-pyrrolidine]-1,3-dione] | – | – | –
8 | > 100 µM | 28.8 µM | 85.7 µM | CCOc1ccc(C2C(CC(C)C)NC3(C(=O)c4ccccc4C3=O)C2C(=O)c2nc3ccccc3[nH]2)cc1 (stereo not drawn) [Compound 15, 3-(1H-benzimidazol-2-carbonyl)-4-(4-ethoxyphenyl)-5-isobutylspiro[inden-2,2′-pyrrolidine]-1,3-dione] | – | – | –
9 | 49.7 µM | 10.8 µM | 20.9 µM | CC(C)CC1NC2(C(=O)c3ccccc3C2=O)C(C(=O)c2nc3ccccc3[nH]2)C1c1ccc(Br)cc1 (stereo not drawn) [Compound 16, 3-(1H-benzimidazol-2-carbonyl)-4-(4-bromophenyl)-5-isobutylspiro[inden-2,2′-pyrrolidine]-1,3-dione] | – | – | –
10 | 16.2 µM | 11.1 µM | 14.7 µM | CCC(C)C1NC2(C(=O)c3ccccc3C2=O)C(C(=O)c2nc3ccccc3[nH]2)C1C1CCCCC1 (stereo not drawn) [Compound 17, 3-(1H-benzimidazol-2-carbonyl)-5-sec-butyl-4-cyclohexylspiro[inden-2,2′-pyrrolidine]-1,3-dione] | – | – | –
11 | > 100 µM | > 100 µM | > 100 µM | CCC(C)C1NC2(C(=O)c3ccccc3C2=O)C(C(=O)c2nc3ccccc3[nH]2)C1c1ccc(Cl)c(F)c1 (stereo not drawn) [Compound 18, 3-(1H-benzimidazol-2-carbonyl)-5-sec-butyl-4-(3-fluoro-4-chlorophenyl)spiro[inden-2,2′-pyrrolidine]-1,3-dione] | – | – | –
12 | > 100 µM | 42.1 µM | 87.5 µM | CCC(C)C1NC2(C(=O)c3ccccc3C2=O)C(C(=O)c2nc3ccccc3[nH]2)C1c1ccc(Cl)cc1 (stereo not drawn) [Compound 19, 3-(1H-benzimidazol-2-carbonyl)-5-sec-butyl-4-(4-chlorophenyl)spiro[inden-2,2′-pyrrolidine]-1,3-dione] | – | – | –
13 | > 100 µM | 51.3 µM | 94 µM | CCC(C)C1NC2(C(=O)c3ccccc3C2=O)C(C(=O)c2nc3ccccc3[nH]2)C1c1ccc(C)cc1 (stereo not drawn) [Compound 20, 3-(1H-benzimidazol-2-carbonyl)-5-sec-butyl-4-p-tolylspiro[inden-2,2′-pyrrolidine]-1,3-dione] | – | – | –
14 | 41.3 µM | 35.5 µM | 33.8 µM | CCOc1ccc(C2C(C(C)CC)NC3(C(=O)c4ccccc4C3=O)C2C(=O)c2nc3ccccc3[nH]2)cc1OCC (stereo not drawn) [Compound 21] | – | – | –
15 | 3.45 µM | 5.67 µM | 4.78 µM | CCC(C)C1NC2(C(=O)c3ccccc3C2=O)C(C(=O)c2nc3ccccc3[nH]2)C1c1cccc(Br)c1 (stereo not drawn) [Compound 22, 3-benzimidazol-2-carbonyl-4-(3-bromophenyl)-5-sec-butylspiro[inden-2,2′-pyrrolidine]-1,3-dione] | – | – | –
16 | 8.78 µM | 9.67 µM | 45.8 µM | CCOc1ccc(C2C(C(C)CC)NC3(C(=O)c4ccccc4C3=O)C2C(=O)c2nc3ccccc3[nH]2)cc1 (stereo not drawn) [Compound 23, 3-(1H-benzimidazol-2-carbonyl)-5-sec-butyl-4-(4-ethoxyphenyl)spiro[inden-2,2′-pyrrolidine]-1,3-dione] | – | – | –
17 | 67.8 µM | 45.8 µM | 3.67 µM | CCC(C)C1NC2(C(=O)c3ccccc3C2=O)C(C(=O)c2nc3ccccc3[nH]2)C1c1ccc(Br)cc1 (stereo not drawn) [Compound 24, 3-(1H-benzimidazol-2-carbonyl)-4-(4-bromophenyl)-5-sec-butylspiro[inden-2,2′-pyrrolidine]-1,3-dione] | – | – | –

Row | SMILES | IC50 ([1]; Homo sapiens) | IC50 [2, 4] | IC50 ([3]; Homo sapiens) | IC50 [1] | IC50 ([2]; MTT method) | IC50 [3]
18 | O=C(c1nc2ccccc2[nH]1)C1C(C2CCCCC2)C2CCCN2C12C(=O)c1ccccc1C2=O (stereo not drawn) [Compound 1, 2-(1H-benzimidazol-2-carbonyl)-1-cyclohexyl-1,2,5,6,7,7a-hexahydrospiroinden-2,3-pyrrolizine-1,3-dione] | > 100 µM | > 100 µM | 40.8 µM | – | – | –
19 | O=C(c1nc2ccccc2[nH]1)C1C(c2ccc(Cl)c(F)c2)C2CCCN2C12C(=O)c1ccccc1C2=O (stereo not drawn) [Compound 2, 2-(1H-benzimidazol-2-carbonyl)-1-(3-fluoro-4-chlorophenyl)-1,2,5,6,7,7a-hexahydrospiro[inden-2,3-pyrrolizine]-1,3-dione] | > 100 µM | > 100 µM | > 100 µM | – | – | –
20 | O=C(c1nc2ccccc2[nH]1)C1C(c2ccc(Cl)cc2)C2CCCN2C12C(=O)c1ccccc1C2=O (stereo not drawn) [Compound 3, 2-(1H-benzimidazol-2-carbonyl)-1-4-chlorophenyl-1,2,5,6,7,7a-hexahydrospiroinden-2,3-pyrrolizine-1,3-dione] | > 100 µM | 26.2 µM | 30 µM | – | – | –
21 | Cc1ccc(C2C3CCCN3C3(C(=O)c4ccccc4C3=O)C2C(=O)c2nc3ccccc3[nH]2)cc1 (stereo not drawn) [Compound 4, 2-(1H-benzimidazol-2-carbonyl)-1-p-tolyl-1,2,5,6,7,7a-hexahydrospiroinden-2,3-pyrrolizine-1,3-dione] | > 100 µM | 54.2 µM | 17.1 µM | – | – | –
22 | CCOc1ccc(C2C3CCCN3C3(C(=O)c4ccccc4C3=O)C2C(=O)c2nc3ccccc3[nH]2)cc1OCC (stereo not drawn) [Compound 5, 2-(1H-benzimidazol-2-carbonyl)-3,4-diethoxyphenyl-1,2,5,6,7,7a-hexahydrospiroinden-2,3-pyrrolizine-1,3-dione] | 80.7 µM | 17.4 µM | 36.9 µM | – | – | –
23 | O=C(c1nc2ccccc2[nH]1)C1C(c2cccc(Br)c2)C2CCCN2C12C(=O)c1ccccc1C2=O (stereo not drawn) [Compound 6, 2-(1H-benzimidazol-2-carbonyl)-1-3-bromophenyl-1,2,5,6,7,7a-hexahydrospiroinden-2,3-pyrrolizine-1,3-dione] | 11.7 µM | 6.64 µM | 4 µM | – | – | –
24 | CCOc1ccc(C2C3CCCN3C3(C(=O)c4ccccc4C3=O)C2C(=O)c2nc3ccccc3[nH]2)cc1 (stereo not drawn) [Compound 7, 2-(1H-benzimidazol-2-carbonyl)-1-(4-ethoxyphenyl)-1,2,5,6,7,7a-hexahydrospiroinden-2,3-pyrrolizine-1,3-dione] | 20.5 µM | 7.99 µM | 7.73 µM | – | – | –
25 | O=C(c1nc2ccccc2[nH]1)C1C(c2ccc(Br)cc2)C2CCCN2C12C(=O)c1ccccc1C2=O (stereo not drawn) [Compound 8, 2-(1H-benzimidazol-2-carbonyl)-1-4-bromophenyl-1,2,5,6,7,7a-hexahydrospiroinden-2,3-pyrrolizine-1,3-dione] | > 100 µM | 17.4 µM | 25.7 µM | – | – | –

Source: patent US12637472B2, “Benzimidazole heteroatom-containing spiro compound and medicinal use thereof” (Changzhi University, priority 2023, dated 2026)
